Patent US8933230B2, “Phosphorus-containing group-substituted quinoline, its preparation process, medical composition containing the compounds and application” (priority 2011, dated 2015)

Experiments:
Assay in all cases: KinomeScan kinase panel
Type in all cases: binding
TXK = biological target: T1, TXK (Homo sapiens, UniProt P42681)
T1 construct: purchased DiscoveRx Corporation (KinomeScan)
Method in brief: (§1)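 The compound was profiled across a 442-kinase KinomeScan binding panel at a fixed concentration of 1000 nM; values reflect inhibitory effect at that one dose.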

LTK = biological target: T2, LTK (Homo sapiens, UniProt P29376)
T2 construct: purchased DiscoveRx Corporation (KinomeScan)
Method in brief: as §1

BRSK2 = biological target: T3, BRSK2 (Homo sapiens, UniProt Q8IWQ3)
T3 construct: purchased DiscoveRx Corporation (KinomeScan)
Method in brief: as §1

LCK = biological target: T4, LCK (Homo sapiens, UniProt P06239)
T4 construct: purchased DiscoveRx Corporation (KinomeScan)
Method in brief: as §1

PRP4 = biological target: T5, PRP4 (Homo sapiens, UniProt Q13523)
T5 construct: purchased DiscoveRx Corporation
Method in brief: as §1

EPHB4 = biological target: T6, EPHB4 (Homo sapiens, UniProt P54760)
T6 construct: purchased DiscoveRx Corporation (KinomeScan)
Method in brief: as §1

FRK = biological target: T7, FRK (Homo sapiens, UniProt P42685)
T7 construct: purchased DiscoveRx Corporation (KinomeScan)
Method in brief: as §1

PAK6 = biological target: T8, PAK6 (Homo sapiens, UniProt Q9NQU5)
T8 construct: purchased DiscoveRx Corporation (KinomeScan panel)
Method in brief: as §1

IKK-epsilon = biological target: T9, IKK-epsilon (Homo sapiens, UniProt Q14164)
T9 construct: purchased DiscoveRx Corporation (KinomeScan)
Method in brief: as §1

MAP3K3 = biological target: T10, MAP3K3 (Homo sapiens, UniProt Q99759)
T10 construct: purchased DiscoveRx Corporation (KinomeScan)
Method in brief: as §1

AMPK-alpha2 = biological target: T11, AMPK-alpha2 (Homo sapiens, UniProt P54646)
T11 construct: purchased DiscoveRx Corporation (KinomeScan)
Method in brief: as §1

SRPK3 = biological target: T12, SRPK3 (Homo sapiens, UniProt Q9UPE1)
T12 construct: purchased DiscoveRx Corporation (KinomeScan)
Method in brief: as §1

KIT(A829P) = biological target: T13, KIT(A829P) (Homo sapiens, UniProt P10721, A829P)
T13 construct: purchased DiscoveRx Corporation (KinomeScan)
Method in brief: as §1

MLK2 = biological target: T14, MLK2 (Homo sapiens, UniProt Q02779)
T14 construct: purchased DiscoveRx Corporation (KinomeScan)
Method in brief: as §1

TNK1 = biological target: T15, TNK1 (Homo sapiens, UniProt Q13470)
T15 construct: purchased DiscoveRx Corporation (KinomeScan)
Method in brief: as §1

MERTK = biological target: T16, MERTK (Homo sapiens, UniProt Q12866)
T16 construct: purchased DiscoveRx Corporation (KinomeScan)
Method in brief: as §1

AKT2 = biological target: T17, AKT2 (Homo sapiens, UniProt P31751)
T17 construct: purchased DiscoveRx Corporation (KinomeScan)
Method in brief: as §1

PAK1 = biological target: T18, PAK1 (Homo sapiens, UniProt Q13153)
T18 construct: purchased DiscoveRx Corporation (KinomeScan panel)
Method in brief: as §1

MUSK = biological target: T19, MUSK (Homo sapiens, UniProt O15146)
T19 construct: purchased DiscoveRx Corporation (KinomeScan)
Method in brief: as §1

MYO3B = biological target: T20, MYO3B (Homo sapiens, UniProt Q8WXR4)
T20 construct: purchased DiscoveRx Corporation (KinomeScan)
Method in brief: as §1

KIT(V559D, T670I) = biological target: T21, KIT(V559D, T670I) (Homo sapiens, UniProt P10721, T670I/V559D)
T21 construct: purchased DiscoveRx Corporation (KinomeScan)
Method in brief: as §1

PAKC-beta = biological target: T22, PAKC-beta (Homo sapiens, UniProt P22694)
T22 construct: purchased DiscoveRx Corporation (KinomeScan)
Method in brief: as §1

PRKCE = biological target: T23, PRKCE (Homo sapiens, UniProt Q02156)
T23 construct: purchased DiscoveRx Corporation (KinomeScan)
Method in brief: as §1

PDPK1 = biological target: T24, PDPK1 (Homo sapiens, UniProt O15530)
T24 construct: purchased DiscoveRx Corporation (KinomeScan panel)
Method in brief: as §1

[1] = biological target: T25, RSK2(Kin.Dom.1-N-terminal) (Homo sapiens, UniProt P51812)
T25 construct: Kin.Dom.1; purchased DiscoveRx Corporation (KinomeScan)
Method in brief: as §1

MARK2 = biological target: T26, MARK2 (Homo sapiens, UniProt Q7KZI7)
T26 construct: purchased DiscoveRx Corporation (KinomeScan)
Method in brief: as §1

PRKCH = biological target: T27, PRKCH (Homo sapiens, UniProt P24723)
T27 construct: purchased DiscoveRx Corporation (KinomeScan)
Method in brief: as §1

STK33 = biological target: T28, STK33 (Homo sapiens, UniProt Q9BYT3)
T28 construct: purchased DiscoveRx Corporation (KinomeScan)
Method in brief: as §1

[2] = biological target: T29, ABL1(F317I)-nonphosphorylated (Homo sapiens, UniProt P00519, F317I)
T29 construct: purchased DiscoveRx Corporation (KinomeScan)
Method in brief: as §1

[3] = biological target: T30, RPS6KA5(kin.Dom.2-C-termimal) (Homo sapiens, UniProt O75582)
T30 construct: kin.Dom.2; purchased DiscoveRx Corporation
Method in brief: as §1

FGFR3 = biological target: T31, FGFR3 (Homo sapiens, UniProt P22607)
T31 construct: purchased DiscoveRx Corporation (KinomeScan)
Method in brief: as §1

HIPK2 = biological target: T32, HIPK2 (Homo sapiens, UniProt Q9H2X6)
T32 construct: purchased DiscoveRx Corporation (KinomeScan)
Method in brief: as §1

FLT1 = biological target: T33, FLT1 (Homo sapiens, UniProt P17948)
T33 construct: purchased DiscoveRx Corporation (KinomeScan)
Method in brief: as §1

RIOK2 = biological target: T34, RIOK2 (Homo sapiens, UniProt Q9BVS4)
T34 construct: purchased DiscoveRx Corporation
Method in brief: as §1

ERK2 = biological target: T35, ERK2 (Homo sapiens, UniProt P28482)
T35 construct: purchased DiscoveRx Corporation (KinomeScan)
Method in brief: as §1

T5 sequence (Q13523 whole entry): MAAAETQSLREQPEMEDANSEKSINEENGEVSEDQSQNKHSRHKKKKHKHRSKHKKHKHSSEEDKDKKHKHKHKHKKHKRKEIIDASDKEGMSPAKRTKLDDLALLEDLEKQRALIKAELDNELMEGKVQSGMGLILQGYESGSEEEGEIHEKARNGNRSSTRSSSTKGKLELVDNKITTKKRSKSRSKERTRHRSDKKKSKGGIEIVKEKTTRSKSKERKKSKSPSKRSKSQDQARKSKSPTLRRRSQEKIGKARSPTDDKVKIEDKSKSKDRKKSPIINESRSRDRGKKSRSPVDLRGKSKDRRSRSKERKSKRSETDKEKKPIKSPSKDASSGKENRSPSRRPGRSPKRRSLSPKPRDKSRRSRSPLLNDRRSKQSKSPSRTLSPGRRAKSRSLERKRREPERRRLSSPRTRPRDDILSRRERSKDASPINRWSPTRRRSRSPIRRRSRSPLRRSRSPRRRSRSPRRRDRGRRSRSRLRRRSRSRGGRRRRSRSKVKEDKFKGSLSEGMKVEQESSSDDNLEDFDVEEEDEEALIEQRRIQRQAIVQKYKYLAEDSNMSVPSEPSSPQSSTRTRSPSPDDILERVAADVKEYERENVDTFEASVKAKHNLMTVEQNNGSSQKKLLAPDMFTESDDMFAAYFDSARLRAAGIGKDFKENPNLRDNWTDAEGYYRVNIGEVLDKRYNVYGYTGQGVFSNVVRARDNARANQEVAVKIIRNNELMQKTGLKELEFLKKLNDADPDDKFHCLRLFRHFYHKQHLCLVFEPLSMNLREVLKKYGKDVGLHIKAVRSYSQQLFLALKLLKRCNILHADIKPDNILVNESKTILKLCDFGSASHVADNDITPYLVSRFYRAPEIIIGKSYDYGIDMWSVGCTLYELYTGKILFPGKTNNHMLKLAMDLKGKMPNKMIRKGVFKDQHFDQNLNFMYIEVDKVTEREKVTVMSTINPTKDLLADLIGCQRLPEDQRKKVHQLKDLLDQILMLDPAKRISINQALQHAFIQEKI
T25 sequence (P51812 68-327 limits assumed): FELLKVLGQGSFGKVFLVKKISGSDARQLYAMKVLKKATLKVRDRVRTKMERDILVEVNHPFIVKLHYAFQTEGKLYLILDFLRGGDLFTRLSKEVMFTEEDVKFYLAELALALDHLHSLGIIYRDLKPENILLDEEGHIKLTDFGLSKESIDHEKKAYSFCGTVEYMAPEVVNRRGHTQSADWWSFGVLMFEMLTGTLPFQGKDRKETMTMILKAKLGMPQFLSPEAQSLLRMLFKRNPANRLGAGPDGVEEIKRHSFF
T16 sequence (Q12866 21-999): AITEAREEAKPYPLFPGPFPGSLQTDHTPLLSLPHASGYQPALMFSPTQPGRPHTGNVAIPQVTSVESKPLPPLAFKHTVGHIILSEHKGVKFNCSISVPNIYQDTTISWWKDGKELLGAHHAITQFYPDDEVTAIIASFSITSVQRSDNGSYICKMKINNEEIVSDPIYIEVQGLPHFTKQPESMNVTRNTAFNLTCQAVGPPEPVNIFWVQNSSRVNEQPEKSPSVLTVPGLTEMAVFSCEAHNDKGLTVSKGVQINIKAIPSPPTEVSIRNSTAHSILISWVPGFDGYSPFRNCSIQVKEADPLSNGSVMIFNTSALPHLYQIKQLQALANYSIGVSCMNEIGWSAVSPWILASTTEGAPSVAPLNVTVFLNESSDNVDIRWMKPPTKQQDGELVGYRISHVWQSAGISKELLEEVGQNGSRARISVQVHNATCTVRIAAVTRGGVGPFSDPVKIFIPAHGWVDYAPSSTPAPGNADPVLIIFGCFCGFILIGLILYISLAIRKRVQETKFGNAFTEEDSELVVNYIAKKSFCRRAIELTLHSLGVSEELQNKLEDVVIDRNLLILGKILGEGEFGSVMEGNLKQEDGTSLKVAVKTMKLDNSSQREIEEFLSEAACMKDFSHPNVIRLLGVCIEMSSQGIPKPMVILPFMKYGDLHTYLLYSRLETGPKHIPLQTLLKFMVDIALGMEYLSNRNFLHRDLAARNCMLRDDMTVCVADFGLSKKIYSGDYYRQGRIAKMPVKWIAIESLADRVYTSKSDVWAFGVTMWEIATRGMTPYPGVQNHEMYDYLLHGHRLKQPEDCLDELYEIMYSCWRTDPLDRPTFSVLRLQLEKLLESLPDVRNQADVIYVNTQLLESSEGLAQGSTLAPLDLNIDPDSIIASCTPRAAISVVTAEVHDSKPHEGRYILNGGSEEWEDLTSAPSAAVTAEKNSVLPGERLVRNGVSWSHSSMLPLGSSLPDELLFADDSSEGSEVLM
T3 sequence (Q8IWQ3 whole entry): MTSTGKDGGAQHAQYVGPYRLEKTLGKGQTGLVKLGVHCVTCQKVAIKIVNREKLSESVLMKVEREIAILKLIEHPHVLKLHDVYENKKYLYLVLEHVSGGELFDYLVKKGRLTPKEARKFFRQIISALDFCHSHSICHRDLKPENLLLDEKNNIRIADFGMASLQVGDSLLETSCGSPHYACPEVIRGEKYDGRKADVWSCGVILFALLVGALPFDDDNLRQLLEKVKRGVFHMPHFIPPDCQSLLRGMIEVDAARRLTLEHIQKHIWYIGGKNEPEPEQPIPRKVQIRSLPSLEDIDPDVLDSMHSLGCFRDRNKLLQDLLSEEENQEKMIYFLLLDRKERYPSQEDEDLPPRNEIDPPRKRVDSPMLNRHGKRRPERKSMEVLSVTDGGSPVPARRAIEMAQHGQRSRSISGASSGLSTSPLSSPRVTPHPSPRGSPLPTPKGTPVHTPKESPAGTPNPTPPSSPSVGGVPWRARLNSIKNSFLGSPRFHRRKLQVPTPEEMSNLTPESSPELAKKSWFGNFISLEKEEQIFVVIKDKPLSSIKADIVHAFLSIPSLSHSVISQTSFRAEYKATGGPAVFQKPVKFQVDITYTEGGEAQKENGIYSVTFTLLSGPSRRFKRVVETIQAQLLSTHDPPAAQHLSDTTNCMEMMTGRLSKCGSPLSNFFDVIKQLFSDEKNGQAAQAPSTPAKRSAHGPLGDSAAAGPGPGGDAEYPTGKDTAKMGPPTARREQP
T13 sequence (P10721 26-976 A829P): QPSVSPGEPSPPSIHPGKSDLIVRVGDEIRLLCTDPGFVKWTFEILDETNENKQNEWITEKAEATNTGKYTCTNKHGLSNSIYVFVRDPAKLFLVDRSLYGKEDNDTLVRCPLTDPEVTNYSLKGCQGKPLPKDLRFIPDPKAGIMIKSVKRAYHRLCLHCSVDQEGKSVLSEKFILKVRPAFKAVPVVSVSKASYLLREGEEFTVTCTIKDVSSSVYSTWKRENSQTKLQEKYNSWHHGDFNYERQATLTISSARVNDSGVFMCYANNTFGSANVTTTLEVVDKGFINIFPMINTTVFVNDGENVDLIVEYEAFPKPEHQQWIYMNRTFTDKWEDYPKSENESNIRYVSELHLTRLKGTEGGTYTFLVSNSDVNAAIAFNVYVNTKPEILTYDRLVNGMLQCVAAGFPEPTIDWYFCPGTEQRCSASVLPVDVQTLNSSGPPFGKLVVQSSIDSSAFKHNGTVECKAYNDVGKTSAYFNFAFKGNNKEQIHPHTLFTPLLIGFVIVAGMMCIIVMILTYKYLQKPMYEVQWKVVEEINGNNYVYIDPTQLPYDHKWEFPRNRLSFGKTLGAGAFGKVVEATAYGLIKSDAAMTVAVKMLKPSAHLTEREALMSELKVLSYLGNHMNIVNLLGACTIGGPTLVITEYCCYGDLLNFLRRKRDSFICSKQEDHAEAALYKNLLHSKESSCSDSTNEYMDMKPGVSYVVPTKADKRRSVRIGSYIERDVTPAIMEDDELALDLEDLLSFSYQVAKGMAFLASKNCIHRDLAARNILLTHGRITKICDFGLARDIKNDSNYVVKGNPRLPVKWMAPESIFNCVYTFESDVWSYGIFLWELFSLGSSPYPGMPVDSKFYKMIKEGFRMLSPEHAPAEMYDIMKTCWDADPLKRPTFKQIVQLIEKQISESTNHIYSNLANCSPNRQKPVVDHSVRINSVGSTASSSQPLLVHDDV
T26 sequence (Q7KZI7 whole entry): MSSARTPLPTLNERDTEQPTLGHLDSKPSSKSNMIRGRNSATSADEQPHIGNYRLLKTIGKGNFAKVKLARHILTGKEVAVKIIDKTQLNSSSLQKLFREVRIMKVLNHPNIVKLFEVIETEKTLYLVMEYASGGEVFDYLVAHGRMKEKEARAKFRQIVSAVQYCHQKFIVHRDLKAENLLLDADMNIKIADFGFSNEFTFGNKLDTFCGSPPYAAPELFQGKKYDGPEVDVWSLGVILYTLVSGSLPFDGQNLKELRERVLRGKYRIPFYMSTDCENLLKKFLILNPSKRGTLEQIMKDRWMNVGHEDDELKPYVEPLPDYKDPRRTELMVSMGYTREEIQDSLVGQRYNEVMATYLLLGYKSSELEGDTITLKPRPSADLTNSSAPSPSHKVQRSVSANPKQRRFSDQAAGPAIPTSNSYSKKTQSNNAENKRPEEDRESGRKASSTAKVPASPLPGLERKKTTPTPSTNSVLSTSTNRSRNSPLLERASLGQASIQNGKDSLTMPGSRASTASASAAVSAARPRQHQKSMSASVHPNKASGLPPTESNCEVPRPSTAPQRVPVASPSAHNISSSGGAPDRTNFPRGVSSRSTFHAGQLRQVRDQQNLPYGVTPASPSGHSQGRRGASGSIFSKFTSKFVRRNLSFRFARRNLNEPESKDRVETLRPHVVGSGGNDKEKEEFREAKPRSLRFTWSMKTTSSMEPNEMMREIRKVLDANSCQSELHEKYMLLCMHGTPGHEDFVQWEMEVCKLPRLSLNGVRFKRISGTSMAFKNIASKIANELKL
T21 sequence (P10721 26-976 V559D/T670I): as the sequence (P10721 26-976 A829P) above, with V534D, T645I, P804A counted along it
T30 sequence (O75582 426-687 limits assumed): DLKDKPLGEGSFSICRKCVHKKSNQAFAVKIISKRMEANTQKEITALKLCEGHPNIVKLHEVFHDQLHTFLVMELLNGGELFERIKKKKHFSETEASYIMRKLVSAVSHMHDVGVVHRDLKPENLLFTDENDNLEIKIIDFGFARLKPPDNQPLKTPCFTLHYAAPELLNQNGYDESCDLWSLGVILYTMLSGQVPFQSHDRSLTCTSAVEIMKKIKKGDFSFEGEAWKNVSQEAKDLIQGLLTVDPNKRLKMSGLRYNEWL

`CCOP(=O)(CN1CCC(COc2cc3nccc(Oc4ccc(NC(=O)C5(C(=O)Nc6ccc(F)cc6)CC5)cc4F)c3cc2OC)CC1)OCC` [Example 10, N1-[4-[[7-[[1-(diethoxyphosphorylmethyl)-4-piperidinyl]methoxyl]-6-methoxyl-4-quinolyl]oxyl]-3-fluorophenyl]-N1′-(4-fluorophenyl)cyclopropane-1,1-dicarboxamide] was tested, and the “% Ctrl@1000 nM” value (TXK) was 62 % Ctrl, the “% Ctrl@1000 nM” value (LTK) was 26 % Ctrl and the “% Ctrl@1000 nM” value (BRSK2) was 100 % Ctrl. For the same compound, the “% Ctrl@1000 nM” value (LCK) was 2.2 % Ctrl, the “% Ctrl@1000 nM” value (PRP4) was 76 % Ctrl and the “% Ctrl@1000 nM” value (EPHB4) was 12 % Ctrl. The “% Ctrl@1000 nM” value (FRK) was 8.8 % Ctrl, the “% Ctrl@1000 nM” value (PAK6) was 87 % Ctrl and the “% Ctrl@1000 nM” value (IKK-epsilon) was 94 % Ctrl. For the same compound, the “% Ctrl@1000 nM” value (MAP3K3) was 100 % Ctrl, the “% Ctrl@1000 nM” value (AMPK-alpha2) was 100 % Ctrl and the “% Ctrl@1000 nM” value (SRPK3) was 100 % Ctrl. For the same compound, the “% Ctrl@1000 nM” value (KIT(A829P)) was 64 % Ctrl, the “% Ctrl@1000 nM” value (MLK2) was 78 % Ctrl and the “% Ctrl@1000 nM” value (TNK1) was 30 % Ctrl. The “% Ctrl@1000 nM” value (MERTK) was 2.1 % Ctrl, the “% Ctrl@1000 nM” value (AKT2) was 100 % Ctrl and the “% Ctrl@1000 nM” value (PAK1) was 37 % Ctrl. For the same compound, the “% Ctrl@1000 nM” value (MUSK) was 13 % Ctrl, the “% Ctrl@1000 nM” value (MYO3B) was 100 % Ctrl and the “% Ctrl@1000 nM” value (KIT(V559D, T670I)) was 1.4 % Ctrl. For the same compound, the “% Ctrl@1000 nM” value (PAKC-beta) was 100 % Ctrl, the “% Ctrl@1000 nM” value (PRKCE) was 100 % Ctrl and the “% Ctrl@1000 nM” value (PDPK1) was 100 % Ctrl. The “% Ctrl@1000 nM” value [1] was 100 % Ctrl, the “% Ctrl@1000 nM” value (MARK2) was 100 % Ctrl and the “% Ctrl@1000 nM” value (PRKCH) was 100 % Ctrl. The “% Ctrl@1000 nM” value (STK33) was 46 % Ctrl, the “% Ctrl@1000 nM” value [2] was 42 % Ctrl and the “% Ctrl@1000 nM” value [3] was 83 % Ctrl. For the same compound, the “% Ctrl@1000 nM” value (FGFR3) was 69 % Ctrl, the “% Ctrl@1000 nM” value (HIPK2) was 100 % Ctrl and the “% Ctrl@1000 nM” value (FLT1) was 7.3 % Ctrl. The “% Ctrl@1000 nM” value (RIOK2) was 100 % Ctrl and the “% Ctrl@1000 nM” value (ERK2) was 100 % Ctrl.
